Data as given in paper PMC7397269, “Synthesis and Evaluation of New Coumarin Derivatives as Antioxidant, Antimicrobial, and Anti-Inflammatory Agents” (Molecules, 2020).
≈ marks a conversion by molar mass, not a printed value. Read-outs that look alike come from different tables or passages of the source.

What was measured:
COX-1 = target: T1, COX-1 (Homo sapiens, UniProt P23219); assay: COX-1 inhibition, Cayman assay kit; assay type: biochemical; settings: mean of two determinations
T1 construct: purchased Cayman Chemical 701070
T1 sequence (P23219 24-599): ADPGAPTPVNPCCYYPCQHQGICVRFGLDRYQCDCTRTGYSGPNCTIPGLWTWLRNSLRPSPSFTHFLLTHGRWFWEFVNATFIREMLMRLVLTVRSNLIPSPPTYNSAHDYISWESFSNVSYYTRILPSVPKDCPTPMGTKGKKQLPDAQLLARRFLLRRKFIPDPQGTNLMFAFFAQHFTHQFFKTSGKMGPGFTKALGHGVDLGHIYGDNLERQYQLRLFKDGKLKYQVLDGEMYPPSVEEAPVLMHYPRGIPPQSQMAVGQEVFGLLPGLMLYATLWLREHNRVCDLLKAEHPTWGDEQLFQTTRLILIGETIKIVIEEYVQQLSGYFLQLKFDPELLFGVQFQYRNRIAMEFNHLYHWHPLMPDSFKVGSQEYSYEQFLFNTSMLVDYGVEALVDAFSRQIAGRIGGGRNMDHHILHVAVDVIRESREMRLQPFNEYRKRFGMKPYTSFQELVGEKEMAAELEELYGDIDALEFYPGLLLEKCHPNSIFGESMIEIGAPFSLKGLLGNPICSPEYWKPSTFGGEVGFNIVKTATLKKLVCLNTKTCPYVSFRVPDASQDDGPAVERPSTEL

[1] = system: Staphylococcus aureus ATCC 29213; assay: MIC, two-fold serial dilution, S. aureus; assay type: cell-based; settings: ATCC29213, read-out: Minimum inhibitory concentration, SA
Outline: (§1)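 Compounds with agar-well inhibition zone >16 mm went on to two-fold broth dilution at final 1000, 500, 250 and 125 μg/mL. Inocula were 1×10^8 CFU/mL for bacteria and 1×10^6 CFU/mL for yeast (0.1 mL per 5 mL), incubated 37 °C for 24 h. MIC taken as the lowest concentration with no growth.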

[2] = system: Escherichia coli ATCC 2592; assay: MIC, two-fold serial dilution, E. coli; assay type: cell-based; settings: ATCC2592, read-out: Minimum inhibitory concentration, EC
From the text: (§2) The new molecules were individually tested for their antimicrobial activity in vitro against standard bacteria strains from the American Type Culture Collection (ATCC), namely, Staphylococcus aureus ATCC 29213, Bacillus subtilis ATCC 6633, Bacillus megaterium ATCC 9885 (Gram-positive), Escherichia coli ATCC 2592, and Pseudomonas aeruginosa ATCC 27,953 (Gram-negative). The compounds were also microbiologically tested against locally isolated Saccharomyces cerevisiae (yeast) and the standard Agricultural Research Service Culture Collection (NRRL) strain of the yeast-like pathogenic fungus Candida albicans NRRL Y-477. Primary screening was conducted using the agar well diffusion method using nutrient agar (NA) medium and Sabourand dextrose agar (SDA) medium for the tested pathological bacteria and yeast, respectively. […].
(§3) The bacteriostatic activity of the active compounds (having IZ > 16 mm) was then evaluated using the two-fold serial dilution technique. Two-fold serial dilutions of the tested compounds solutions were prepared using the proper nutrient broth to reach final concentrations of 1000, 500, 250, and 125 μg/mL. The tubes were then inoculated with the test microorganisms grown in their suitable broth at 37 °C for 24 h (1 × 10^8 CFU/mL for bacteria and 1 × 10^6 CFU/mL of yeast), 0.1 mL of the above inoculum was administered per 5 mL, and the tubes were incubated at 37 °C for 24 h. The lowest concentration showing no growth was taken as the MIC.

[3] = system: Saccharomyces cerevisiae local isolate; assay: MIC, two-fold serial dilution, S. cerevisiae; assay type: cell-based; settings: read-out: Minimum inhibitory concentration, SC
Outline: as §1

[4] = system: Saccharomyces cerevisiae local isolate; assay: Agar well diffusion, S. cerevisiae; assay type: cell-based; settings: read-out: diameter of inhibition zone, SC
Outline: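 Read-out: inhibition zone diameter in mm, mean of triplicate runs. Compound solution (10 mg/mL in DMSO, 100 μL) was loaded into 10 mm wells cut in seeded NA (bacteria, 1 × 10^8 CFU/mL) or SDA (yeast, 1 × 10^6 CFU/mL), then incubated 24 h at 37 °C.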

[5] = DPPH antioxidant assay (radical scavenging); assay type: biochemical; settings: mean ± SD (n = 3)
Outline: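 Compounds, starting at 200 μg/mL, were mixed with 0.2 mM methanolic DPPH and incubated 30 min in the dark at 25 °C; absorbance was read at 515 nm. % inhibition is background-corrected against DPPH-only control, with IC50 from curve fit. Runs were triplicate (mean ± SD), with ascorbic acid as positive control.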

[6] = system: Bacillus megaterium ATCC 9885; assay: MIC, two-fold serial dilution, B. megaterium; assay type: cell-based; settings: Priestia megaterium, ATCC9885, read-out: Minimum inhibitory concentration, BM
Outline: as §1

tested microorganisms = assay: MIC, summary over the tested microorganisms; assay type: cell-based; settings: two-fold serial dilution
From the text: as §2, §3

[7] = system: formaldehyde-induced rat paw oedema; assay: Formaldehyde-induced rat paw oedema (prophylactic); assay type: in vivo; settings: 2.5 mg/kg orally, 1 h after inducing inflammation
[8] = read-out: MIC against Gram-positive bacteria
[9] = two-fold serial dilution, S. cerevisiae
[10] = well diffusion, 100 μL of 10 mg/mL in DMSO, S. cerevisiae
[11] = read-out: MIC against one or more tested microorganisms

| Structure (SMILES) | IC50 (COX-1) | MIC [1] | MIC [2] | MIC [3] | zone of inhibition at 10000 µg/mL [4] | IC50 [5] | MIC [6] | MIC (tested microorganisms; [8]) | % inhibition of paw oedema [7] | MIC [3, 9] | zone of inhibition at 10000 µg/mL [4, 10] | MIC (tested microorganisms; [11]) | MIC (tested microorganisms; read-out: MIC against all microorganisms) |
| --- | --- | --- | --- | --- | --- | --- | --- | --- | --- | --- | --- | --- | --- |
| Cc1ccc2oc(=O)c3c(c2c1)OC(N)=C(C#N)C3c1ccc([N+](=O)[O-])cc1 (racemic) [2a, (±)-2-Amino-9-methyl-4-(4-nitrophenyl)-5-oxo-4H,5H-pyrano[3,2-c]chromene-3-carbonitrile] | 117 µM | 500 µg/mL (≈ 1330 µM) | 1000 µg/mL (≈ 2660 µM) | 500 µg/mL (≈ 1330 µM) | 25 mm | — ((—): inactive (IC50 > 200 μg/mL)) | 500 µg/mL (≈ 1330 µM) | 500 to 1000 µg/mL (≈ 1330 to 2660 µM) | – | – | – | – | – |
| Cc1ccc2oc(=O)c3c(c2c1)OC(N)=C(C#N)C3c1ccco1 (racemic) [2b, (±)-2-Amino-4-(furan-2-yl)-9-methyl-5-oxo-4H,5H-pyrano[3,2-c]chromene-3-carbonitrile] | 201 µM | 500 µg/mL (≈ 1560 µM) | 1000 µg/mL (≈ 3120 µM) | 500 µg/mL (≈ 1560 µM) | 27 mm | — ((—): inactive (IC50 > 200 μg/mL)) | 500 µg/mL (≈ 1560 µM) | 500 to 1000 µg/mL (≈ 1560 to 3120 µM) | 6.57% | – | – | – | – |
| COc1cc(/C=N/C2=C(C#N)C(c3ccc([N+](=O)[O-])cc3)c3c(c4cc(C)ccc4oc3=O)O2)cc(OC)c1OC (racemic) [5c, (±)-9-methyl-4-(4-nitrophenyl)-5-oxo-2-((3,4,5-trimethoxybenzylidene)amino)-4H,5H-pyrano[3,2-c]chromene-3-carbonitrile] | 18.5 µM | 500 µg/mL (≈ 903 µM) | 500 µg/mL (≈ 903 µM) | 500 µg/mL (≈ 903 µM) | 27 mm | — ((—): inactive (IC50 > 200 μg/mL)) | 500 µg/mL (≈ 903 µM) | – | – | – | – | – | – |
| Cc1ccc2oc(=O)c3c(c2c1)OC(/N=C/c1ccc(Cl)cc1Cl)=C(C#N)C3c1ccco1 (racemic) [5f, (±)-2-((2,4-dichlorobenzylidene)amino)-4-(furan-2-yl)-9-methyl-5-oxo-4H,5H-pyrano[3,2-c]chromene-3-carbonitrile] | 90.2 µM | 500 µg/mL (≈ 1050 µM) | 1000 µg/mL (≈ 2100 µM) | 500 µg/mL (≈ 1050 µM) | 24 mm | — ((—): inactive (IC50 > 200 μg/mL)) | 1000 µg/mL (≈ 2100 µM) | 500 to 1000 µg/mL (≈ 1050 to 2100 µM) | – | – | – | – | – |
| NS(=O)(=O)c1ccc(NS(=O)(=O)c2c(O)c3cc(Cl)ccc3oc2=O)cc1 [7a, 6-Chloro-4-hydroxy-2-oxo-N-(4-sulfamoylphenyl)-2H-chromene-3-sulfonamide] | 239 µM | 250 µg/mL (≈ 580 µM) | 250 µg/mL (≈ 580 µM) | – | – | 93.12 ± 0.727 µg/mL (≈ 216 µM) | 500 µg/mL (≈ 1160 µM) | – | – | 250 µg/mL (≈ 580 µM) | 26 mm | – | – |
| O=c1oc2ccc(Cl)cc2c(O)c1S(=O)(=O)Nc1ccc(S(=O)(=O)Nc2ncccn2)cc1 [7c, 6-Chloro-4-hydroxy-2-oxo-N-(4-(N-(pyrimidin-2-yl)sulfamoyl)phenyl)-2H-chromene-3-sulfonamide] | 62.3 µM | 125 µg/mL (≈ 246 µM) | 125 µg/mL (≈ 246 µM) | – | – | 120.12 ± 4.629 µg/mL (≈ 236 µM) | 125 µg/mL (≈ 246 µM) | – | – | 125 µg/mL (≈ 246 µM) | 31 to 32 mm | 125 µg/mL (≈ 246 µM) | – |
| Cc1ccc2oc(=O)c(S(=O)(=O)Nc3ccc(S(=O)(=O)Nc4ncccn4)cc3)c(O)c2c1 [7d, 4-Hydroxy-6-methyl-2-oxo-N-(4-(N-(pyrimidin-2-yl)sulfamoyl)phenyl)-2H-chromene-3-sulfonamide] | 214 µM | 125 µg/mL (≈ 256 µM) | 125 µg/mL (≈ 256 µM) | – | – | 112.19 ± 4.391 µg/mL (≈ 230 µM) | 125 µg/mL (≈ 256 µM) | – | – | 125 µg/mL (≈ 256 µM) | 31 to 32 mm | 125 µg/mL (≈ 256 µM) | 125 µg/mL (≈ 256 µM) |
| O=c1oc2ccc(Cl)cc2c(O)c1S(=O)(=O)Nc1ccc(S(=O)(=O)Nc2nccs2)cc1 [7e, 6-Chloro-4-hydroxy-2-oxo-N-(4-(N-(thiazol-2-yl)sulfamoyl)phenyl)-2H-chromene-3-sulfonamide] | 29.6 µM | 500 µg/mL (≈ 973 µM) | 500 µg/mL (≈ 973 µM) | – | – | 71.67 ± 3.231 µg/mL (≈ 139 µM) | 500 µg/mL (≈ 973 µM) | – | – | 1000 µg/mL (≈ 1950 µM) | 20 mm | – | – |
| Cc1ccc2oc(=O)c(S(=O)(=O)Nc3ccc(S(=O)(=O)Nc4nccs4)cc3)c(O)c2c1 [7f, 4-Hydroxy-6-methyl-2-oxo-N-(4-(N-(thiazol-2-yl)sulfamoyl)phenyl)-2H-chromene-3-sulfonamide] | 40.9 µM | 250 µg/mL (≈ 507 µM) | 500 µg/mL (≈ 1010 µM) | – | – | 83.52 ± 1.849 µg/mL (≈ 169 µM) | 250 µg/mL (≈ 507 µM) | – | 17.18% | 250 µg/mL (≈ 507 µM) | 26 mm | – | – |
| O=c1oc2ccc(Cl)cc2c(O)c1S(=O)(=O)Nc1ccccc1 [8a, 6-Chloro-4-hydroxy-2-oxo-N-phenyl-2H-chromene-3-sulfonamide] | 25 µM | 500 µg/mL (≈ 1420 µM) | 500 µg/mL (≈ 1420 µM) | – | – | 14.51 ± 1.827 µg/mL (≈ 41.2 µM) | 250 µg/mL (≈ 711 µM) | – | – | 250 µg/mL (≈ 711 µM) | 28 mm | – | – |
| Cc1ccc2oc(=O)c(S(=O)(=O)Nc3ccccc3)c(O)c2c1 [8b, 4-Hydroxy-6-methyl-2-oxo-N-phenyl-2H-chromene-3-sulfonamide] | 26 µM | 1000 µg/mL (≈ 3020 µM) | 1000 µg/mL (≈ 3020 µM) | – | – | 19.25 ± 4.171 µg/mL (≈ 58.1 µM) | 1000 µg/mL (≈ 3020 µM) | – | – | 1000 µg/mL (≈ 3020 µM) | 19 mm | – | – |
| O=c1oc2ccc(Cl)cc2c(O)c1S(=O)(=O)Nc1ccc(O)cc1 [8c, 6-Chloro-4-hydroxy-N-(4-hydroxyphenyl)-2-oxo-2H-chromene-3-sulfonamide] | 15.4 µM | 125 µg/mL (≈ 340 µM) | 250 µg/mL (≈ 680 µM) | – | – | 3.87 ± 0.409 µg/mL (≈ 10.5 µM) | 250 µg/mL (≈ 680 µM) | – | 9.45% | 125 µg/mL (≈ 340 µM) | 31 to 32 mm | 125 µg/mL (≈ 340 µM) | – |
| Cc1ccc2oc(=O)c(S(=O)(=O)Nc3ccc(O)cc3)c(O)c2c1 [8d, 4-Hydroxy-N-(4-hydroxyphenyl)-6-methyl-2-oxo-2H-chromene-3-sulfonamide] | 19.4 µM | 125 µg/mL (≈ 360 µM) | 125 µg/mL (≈ 360 µM) | – | – | 4.30 ± 0.531 µg/mL (≈ 12.4 µM) | 250 µg/mL (≈ 720 µM) | – | – | 125 µg/mL (≈ 360 µM) | 31 to 32 mm | 125 µg/mL (≈ 360 µM) | – |
